Assays:
Hst2 (1-294) = Hst2 (1-294) (Saccharomyces cerevisiae, UniProt P53686); test: High throughput screen for Hst2 effectors in the presence of nicotinamide (fluorimetric); conditions: Table 3, activators, nicotinamide present
Description: High Throughput Screening (HTS). A high throughput screening protocol based on the SIRT1 Fluorimetric Activity Assay/Drug Discovery Kit was developed (BIOMOL International, Inc., Plymouth Meeting, Pa.). […] One hundred nanoliters of either a DMSO control or a compound from the small molecule screening library was added to each well by pinning. […] After 45 minutes, each plate was read on a fluorescence plate reader at an excitation wavelength of 360 nm and an emission wavelength of 460 nm. […] The fluorescence signal from each well was normalized to the DMSO controls on each 384-well plate and compared to a DMSO control population based on the following equation:
where χ is the fluorescence signal of the well, μ is the mean of the control (DMSO) population and σ is the standard deviation of the control population. […]

yHst2 D118N mutant = target: T1, yHst2 D118N mutant (Saccharomyces cerevisiae, UniProt P53686, D118N); test: Kinetic assay, deacetylase fluorescent activity assay kit, D118N mutant; type: biochemical
T1 construct: Point mutations in yHst2 (1-294) were generated from the pRSET-A plasmid; His6 (N); made in house
T1 sequence (P53686 1-294 D118N): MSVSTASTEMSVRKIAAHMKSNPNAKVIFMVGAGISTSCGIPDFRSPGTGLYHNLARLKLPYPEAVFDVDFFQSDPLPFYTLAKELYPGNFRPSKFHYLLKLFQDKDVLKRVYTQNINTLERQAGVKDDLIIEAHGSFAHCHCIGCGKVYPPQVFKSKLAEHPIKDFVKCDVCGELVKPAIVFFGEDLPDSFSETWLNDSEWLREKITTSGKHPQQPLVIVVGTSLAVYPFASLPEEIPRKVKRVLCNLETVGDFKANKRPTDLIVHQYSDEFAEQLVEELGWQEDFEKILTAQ
Description: (§1) Protein Preparation, Crystallization and Structure Determination.
(§2) Kinetic Assays. […] Data taken in triplicate were fitted to the equation l/v=(Km/Vmax)(1/[S])+1/Vmax, using a root mean least squares approach in the form of a double reciprocal Lineweaver-Burk plot where the x-intercept is equal to −l/Km. […] The slopes of the Dixon Plot were replotted versus 1/[NAD^+], and the slope of the corresponding line was set equal to Km/(Vmax*Ki), in order to calculate Ki.

yHst2 I117V mutant = target: T2, yHst2 I117V mutant (Saccharomyces cerevisiae, UniProt P53686, I117V); test: Kinetic assay, deacetylase fluorescent activity assay kit, I117V mutant; type: biochemical; conditions: I117V mutant; read-out: Km for NAD+
T2 construct: Point mutations in yHst2 (1-294) were generated from the pRSET-A plasmid; His6 (N); made in house
T2 sequence (P53686 1-294 I117V): as the sequence (P53686 1-294 D118N) above, with I117V, N118D counted along it
Description: as §1, §2

wild-type yHst2 = target: T3, wild-type yHst2 (Saccharomyces cerevisiae, UniProt P53686); test: Kinetic assay, deacetylase fluorescent activity assay kit, wild-type enzyme; type: biochemical; conditions: read-out: Km for NAD+
T3 construct: The 64-residue C-terminal deletion construct of yHst2 (residues 1-294) and point mutants were purified; His6 (N); made in house
T3 sequence (P53686 1-294): as the sequence (P53686 1-294 D118N) above, with N118D counted along it
Description: as §2

yHst2 I117F mutant = target: T4, yHst2 I117F mutant (Saccharomyces cerevisiae, UniProt P53686, I117F); test: Kinetic assay, deacetylase fluorescent activity assay kit, I117F mutant; type: biochemical
T4 construct: Point mutations in yHst2 (1-294) were generated from the pRSET-A plasmid; His6 (N); made in house
T4 sequence (P53686 1-294 I117F): as the sequence (P53686 1-294 D118N) above, with I117F, N118D counted along it
Description: as §1, §2

Hst2 (1-294), sequence (P53686 1-294): as the sequence (P53686 1-294 D118N) above, with N118D counted along it

Fold Activation (Hst2 (1-294)) [Fold]	Structure (SMILES)	increase of Km for NAD+ over wild-type (yHst2 D118N mutant; D118N mutant versus wild-type)	Km (yHst2 D118N mutant; D118N mutant, read-out: apparent Km for NAD+) [µM]	Km (yHst2 I117V mutant) [µM]	Km (wild-type yHst2) [µM]	increased Km for NAD+ compared to wild-type enzyme (yHst2 I117F mutant; I117F mutant versus wild-type)	Km (yHst2 I117F mutant; I117F mutant, read-out: Km for NAD+) [µM]
2.2	CC1(C)CC(=O)C2=C(C1)NC1=C(C(=O)CC(C)(C)C1)C2c1cccc(F)c1						
	NC(=O)c1ccc[n+]([C@@H]2O[C@H](COP(=O)([O-])OP(=O)(O)OC[C@H]3O[C@@H](n4cnc5c(N)ncnc54)[C@H](O)[C@@H]3O)[C@@H](O)[C@H]2O)c1 [NAD^+]	more than 28 fold	454	25.5	16.1	less than 2 fold	25.8

— patent publication US20090326007A1, “Compounds and methods for modulating sir2 protein activity” (priority 2007, published 2009)
